Data set [1] in a line: Xanthan gum as interstitial hydrocolloid: dispersion of dried encapsulated L-carvone particles when re-hydrated. The format is physicochemical. The note with it: dispersion on re-hydration, SAF 1 g, L-carvone emulsion 1.1 g. The method, then:
The following protocol was adopted to evaluate the effect of an interstitial hydrocolloid to increase dried hollow glucan particle encapsulated terpene formulations to disperse when hydrated. • SAF Mannan™ particles • 0.1% Tween 80 • L-carvone • Xanthan Gum—1% w/v in 0.1% Tween 80
The effect of increasing xanthan gum levels on dry hollow glucan particle encapsulated L-carvone dispersion in water was assessed by loading L-carvone into SAF Mannan by incubating 1.1 g of an L-carvone emulsion (L-carvone:water:surfactant ratio of 0.75:0.3:0.05) with 1 g SAF Mannan and 4.4 g 0.1% Tween 80 containing 0-1% xanthan gum as shown in Table 32.

Data set [2] relates to root-knot nematodes. Nature of the data set: Effect of pH on the nematicidal activity of citral (fresh and one-day old solutions). The format is in vivo, root-knot nematode. How it is done:
Test solutions of these three concentrations were prepared at different pHs by adjusting the pH with HCl or NaOH to pH 4, 7 and 10.
One batch of test solutions was used immediately and another was left for 24 hours before use. The method of administration to the nematodes and counting the kill rate is the same as for previous protocols.
The results are shown below in Tables 11 and 12.

Experimental findings from patent US10729130B2, “Nematicidal compositions and methods of using them” (Eden Research plc, priority 2004, dated 2020) are described below.

Regarding L-carvone, the “Visual Observations” value is given as “Finer Uniform” in data set [1] (0.1% Tween-80 0 g, 1% xanthan 4.4 g); “Finer Uniform” in data set [1] (0.1% Tween-80 2.2 g, 1% xanthan 2.2 g); “Finer Uniform” in data set [1] (0.1% Tween-80 3.3 g, 1% xanthan 1.1 g); “Uniform” in data set [1] (0.1% Tween-80 3.85 g, 1% xanthan 0.55 g); “Uniform” in data set [1] (0.1% Tween-80 4.12 g, 1% xanthan 0.28 g); “Uniform” in data set [1] (0.1% Tween-80 4.26 g, 1% xanthan 0.14 g). Also, the “Visual Observations” value in data set [1] (0.1% Tween-80 4.33 g, 1% xanthan 0.07 g) was “Uniform”; in data set [1] (0.1% Tween-80 4.4 g, 1% xanthan 0 g), “Large non-”.

Consider `CC(C)=CCCC(C)=CC=O` [Citral, citral], for which the “% nematodes dead” value was found to be 48% in data set [2] (fresh citral, 62.5 ppm, pH 4, 24 h); 50% in data set [2] (fresh citral, 62.5 ppm, pH 4, 48 h); 39% in data set [2] (fresh citral, 62.5 ppm, pH 7, 24 h); 44% in data set [2] (fresh citral, 62.5 ppm, pH 7, 48 h); 32% in data set [2] (fresh citral, 62.5 ppm, pH 10, 24 h); 45% in data set [2] (fresh citral, 62.5 ppm, pH 10, 48 h). Also, the “% nematodes dead” value in data set [2] (fresh citral, 125 ppm, pH 4, 24 h) is on record as 31%; in data set [2] (fresh citral, 125 ppm, pH 4, 48 h) it was 50%; in data set [2] (fresh citral, 125 ppm, pH 7, 24 h) it was 44%; in data set [2] (fresh citral, 125 ppm, pH 7, 48 h), 47%; in data set [2] (fresh citral, 125 ppm, pH 10, 24 h), 39%; in data set [2] (fresh citral, 125 ppm, pH 10, 48 h) it was 39%. The “% nematodes dead” value in data set [2] (fresh citral, 250 ppm, pH 4, 24 h) was found to be 75%; in data set [2] (fresh citral, 250 ppm, pH 4, 48 h), 73%; in data set [2] (fresh citral, 250 ppm, pH 7, 24 h) it was 73%; in data set [2] (fresh citral, 250 ppm, pH 7, 48 h) it was 72%; in data set [2] (fresh citral, 250 ppm, pH 10, 24 h), 83%; in data set [2] (fresh citral, 250 ppm, pH 10, 48 h), 87%. Further, the “% nematodes dead” value in data set [2] (one-day old citral, 62.5 ppm, pH 4, 24 h) came out at 40%; in data set [2] (one-day old citral, 62.5 ppm, pH 4, 48 h), 27%; in data set [2] (one-day old citral, 62.5 ppm, pH 7, 24 h), 30%; in data set [2] (one-day old citral, 62.5 ppm, pH 7, 48 h), 27%; in data set [2] (one-day old citral, 62.5 ppm, pH 10, 24 h), 16%; in data set [2] (one-day old citral, 62.5 ppm, pH 10, 48 h), 21%. In addition, the “% nematodes dead” value was found to be 27% in data set [2] (one-day old citral, 125 ppm, pH 4, 24 h); 31% in data set [2] (one-day old citral, 125 ppm, pH 4, 48 h); 25% in data set [2] (one-day old citral, 125 ppm, pH 7, 24 h); 33% in data set [2] (one-day old citral, 125 ppm, pH 7, 48 h); 25% in data set [2] (one-day old citral, 125 ppm, pH 10, 24 h); 32% in data set [2] (one-day old citral, 125 ppm, pH 10, 48 h). Also, the “% nematodes dead” value in data set [2] (one-day old citral, 250 ppm, pH 4, 24 h) is 90%; in data set [2] (one-day old citral, 250 ppm, pH 4, 48 h) it was 90%; in data set [2] (one-day old citral, 250 ppm, pH 7, 24 h), 40%; in data set [2] (one-day old citral, 250 ppm, pH 7, 48 h) it was 33%; in data set [2] (one-day old citral, 250 ppm, pH 10, 24 h), 47%; in data set [2] (one-day old citral, 250 ppm, pH 10, 48 h), 52%.
